Drawing on patent publication US20240140963A1, “FUSED TRICYCLIC CYCLIN-DEPENDENT KINASE INHIBITOR, AND PREPARATION METHOD THEREFOR AND PHARMACEUTICAL USE THEREOF” (Tuojie Biotech (Shanghai) Co., Ltd., priority 2021, published 2024), this text covers IC50 and Induction fold for eight molecules.

One data set has as its target T1, CDK4/cyclin D1 (Homo sapiens, UniProt P11802).
T1 construct: purchased ProQinase 0142-0143-1
Kind of data set: CDK4/cyclin D1 kinase activity, mobility shift assay. It counts as biochemical. Here is the method:
(§1) In vitro CDK kinase activity was tested using a mobility shift assay.
(§2) The IC50 values of the compounds were obtained by fitting using XLFit excel add-in version 5.4.0.8. Fitting formula:
(§3) Y=Bottom+(Top−Bottom)/(1+10^((Log IC50−X)×Hill Slope)). • X: the log value of the compound concentration; Y: the percent inhibition of the compound.

The target of the next data set is T2, CDK6/cyclin D3 (Homo sapiens, UniProt Q00534).
T2 construct: purchased Carna 04-107
The data set can be described thus: CDK6/cyclin D3 kinase activity, mobility shift assay. The format is biochemical. As to the method:
as §1, §2, §3

In a further data set the target is T3, human PXR (Homo sapiens, UniProt O75469).
T3 construct: host or cells: DPX2 (HepG2)
T3 sequence (O75469 1-434): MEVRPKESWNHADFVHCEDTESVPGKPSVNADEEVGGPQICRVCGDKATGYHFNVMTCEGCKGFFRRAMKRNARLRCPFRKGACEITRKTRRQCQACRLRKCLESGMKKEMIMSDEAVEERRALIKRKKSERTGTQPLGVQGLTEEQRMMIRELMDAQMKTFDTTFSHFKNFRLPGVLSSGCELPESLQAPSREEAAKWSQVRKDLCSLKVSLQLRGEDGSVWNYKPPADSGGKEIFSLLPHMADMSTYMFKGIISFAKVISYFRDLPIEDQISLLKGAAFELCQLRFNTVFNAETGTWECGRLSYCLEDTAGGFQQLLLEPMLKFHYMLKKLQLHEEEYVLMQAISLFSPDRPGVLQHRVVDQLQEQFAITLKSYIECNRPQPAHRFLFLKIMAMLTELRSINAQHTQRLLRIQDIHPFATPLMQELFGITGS
Kind of data set: PXR induction assay in DPX2 cells (luciferase reporter). The format is cell-based. As to the method: 1. The potential of the test compounds to induce the activity of drug metabolism enzymes by in vitro activating PXR was evaluated.
1) DPX2 (HepG2 cells were stably transfected with the human PXR gene and the fluorescent reporter gene) cells were purchased from Puracyp (Carlsbad, CA).
When covering 80-90% of the bottom of the culture flask, the cells were digested.
4) The cell suspension was transferred to a conical-bottomed centrifuge tube and centrifuged at 120 g for 10 min. The cells were suspended in the plating medium and adjusted to a concentration of 4×10^5 cells/mL. 100 μL of diluted cells were added to each well of a 96-well cell culture plate. The culture plate was placed in an incubator and incubated at 37° C. for 24 h before PXR activation assays.
The final concentration of DMSO was 0.1%. To 1 mL of pre-incubated medium, 1 μL of DMSO was added as a solvent control.
2) The cell culture plate was removed from the incubator, and the medium was discarded. 100 μL of each of the test compounds and positive compound was added to an appropriate well in duplicate, and the cell plate was placed in an incubator and incubated for 24 h.
1) After […] of drug treatment, quantification of PXR activation could be performed on the culture.
2) The CellTiter-Fluor™ cell viability assay kit and the One-Glo luciferase reagent were equilibrated to room temperature. The GF-AFC (10 μL) substrate was added to assay buffer (10 mL) to form 2× reagent, and the reagent was then diluted to 1× with 10 mL of PBS; the ONE-Glo substrate was added to the ONE-Glo luciferase assay buffer.
5) The ONE-Glo reagent was poured into a reagent reservoir, and then 50 μL was transferred to each well using a multi-channel pipette. The reagent was gently and well mixed, and the mixture was incubated and well mixed at room temperature for 5 min. After the incubation, the luminescence value of each well was read using a luminometer.
The luciferase activity was expressed in terms of […], where RLU is the mean luminescence intensity value of two replicates of each concentration of each compound, and RFU is the mean fluorescence intensity of two replicates of each concentration of each compound.
The calculation formula for induction fold: […]

The mark [1] stands for this setting: compound concentration 0.123 μM.

Each structure is given as a SMILES string.

T1 sequence (P11802 whole entry): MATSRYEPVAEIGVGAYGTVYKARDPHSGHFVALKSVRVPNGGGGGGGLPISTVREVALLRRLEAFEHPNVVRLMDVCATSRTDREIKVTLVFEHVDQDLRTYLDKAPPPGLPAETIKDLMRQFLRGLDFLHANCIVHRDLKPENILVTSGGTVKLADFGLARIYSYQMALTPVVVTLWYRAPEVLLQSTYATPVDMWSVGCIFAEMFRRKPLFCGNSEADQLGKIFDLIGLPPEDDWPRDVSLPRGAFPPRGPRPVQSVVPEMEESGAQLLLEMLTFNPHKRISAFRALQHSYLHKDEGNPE
T1 sequence (P24385 whole entry partner): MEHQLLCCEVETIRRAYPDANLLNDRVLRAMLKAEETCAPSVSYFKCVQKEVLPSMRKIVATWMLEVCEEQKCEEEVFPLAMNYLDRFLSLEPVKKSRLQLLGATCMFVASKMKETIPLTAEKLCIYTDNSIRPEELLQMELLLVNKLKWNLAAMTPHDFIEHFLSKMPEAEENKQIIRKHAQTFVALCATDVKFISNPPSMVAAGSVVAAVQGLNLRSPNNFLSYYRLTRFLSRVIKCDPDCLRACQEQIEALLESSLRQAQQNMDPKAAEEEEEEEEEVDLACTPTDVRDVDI
T2 sequence (Q00534 whole entry): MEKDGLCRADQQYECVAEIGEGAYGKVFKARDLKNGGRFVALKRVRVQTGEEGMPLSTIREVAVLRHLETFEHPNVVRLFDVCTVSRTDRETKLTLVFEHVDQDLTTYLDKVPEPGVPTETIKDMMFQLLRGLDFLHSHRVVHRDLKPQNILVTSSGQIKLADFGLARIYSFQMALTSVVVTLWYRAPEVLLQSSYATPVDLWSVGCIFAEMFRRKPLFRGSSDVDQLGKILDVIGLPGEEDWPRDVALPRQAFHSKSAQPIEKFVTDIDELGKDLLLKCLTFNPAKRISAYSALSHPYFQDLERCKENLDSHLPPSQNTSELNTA
T2 sequence (P30281 whole entry partner): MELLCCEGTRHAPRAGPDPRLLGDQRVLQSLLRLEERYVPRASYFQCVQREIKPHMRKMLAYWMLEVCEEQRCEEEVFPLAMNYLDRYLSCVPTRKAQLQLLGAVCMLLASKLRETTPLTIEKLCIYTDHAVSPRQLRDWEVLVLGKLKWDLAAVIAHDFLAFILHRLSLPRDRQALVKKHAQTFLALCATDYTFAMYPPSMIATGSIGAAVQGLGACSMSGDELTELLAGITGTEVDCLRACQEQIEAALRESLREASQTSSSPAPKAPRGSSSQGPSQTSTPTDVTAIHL

For orientation: IC50 means the concentration that gives 50% inhibition. On to `Cc1nc2c(F)cc(-c3nc(N[C@@H]4CCN(S(C)(=O)=O)C[C@H]4O)ncc3Cl)c3c2n1[C@@H](C)CO3` (single isomer, unassigned) [Isomer 2 with a retention time of 2.499 min in Example 2], for which the IC50 on CDK4/cyclin D1 came to 1.5 nM; at CDK6/cyclin D3 it was 9.1 nM.
Regarding `C[C@@H]1COc2c(-c3nc(N[C@@H]4CCOC[C@H]4O)ncc3Cl)cc(F)c3nc(C(C)(C)O)n1c23` (single isomer, unassigned) [Isomer 2 with a retention time of 1.887 min in Example 4], the results for the Induction fold at human PXR (setting [1]) and at human PXR (compound concentration 10.0 μM) were 0.99 and 1.48, respectively.
With `Cc1nc2c(F)cc(-c3nc(N[C@@H]4CCN(S(C)(=O)=O)C[C@H]4O)ncc3Cl)c3c2n1[C@@H](C)CO3` (single isomer, unassigned) [Isomer 1 with a retention time of 2.094 min in Example 2], the IC50 on CDK4/cyclin D1 turned out to be 2.5 nM; at CDK6/cyclin D3, 39 nM.
For the molecule `Cc1nc2c(F)cc(-c3nc(N[C@@H]4CCOC[C@H]4O)ncc3F)c3c2n1[C@@H](C)CO3` (single isomer, unassigned) [Isomer 1 with a retention time of 2.903 min in Example 1], the IC50 was 26 nM on CDK4/cyclin D1 and over 1000 nM on CDK6/cyclin D3.
`C[C@H]1COc2c(-c3nc(N[C@@H]4CCOC[C@H]4O)ncc3Cl)cc(F)c3nc(C(C)(C)O)n1c23` (single isomer, unassigned) [Isomer 1 with a retention time of 2.078 min in Example 4]: the Induction fold on human PXR (setting [1]) was determined as 0.87; on human PXR (compound concentration 10.0 μM), 1.43.
`Cc1nc2c(F)cc(-c3nc(N[C@@H]4CCOC[C@H]4O)ncc3Cl)c3c2n1[C@@H](C)CO3` (single isomer, unassigned) [Isomer 1 with a retention time of 3.518 min in Example 3]: the IC50 at CDK4/cyclin D1 turned out to be 15 nM; on CDK6/cyclin D3 it was 64 nM.
In the same order, the values of `Cc1nc2c(F)cc(-c3nc(N[C@@H]4CCOC[C@H]4O)ncc3F)c3c2n1[C@@H](C)CO3` (single isomer, unassigned) [Isomer 2 with a retention time of 3.997 min in Example 1] are 11 nM and 301 nM.
For `CC1COc2c(-c3nc(N[C@@H]4CCOC[C@H]4O)ncc3Cl)cc(F)c3nc(C(C)(C)O)n1c23` (mixture of isomers) [4f (racemate) in Example 4], in that order: 15 nM and 171 nM.
